In patent US10323038B2, “Pyrazole compounds and methods of making and using same” (ABIDE THERAPEUTICS, INC., priority 2015, dated 2019):

Columns and labels:
MAGL = MAGL (Mus musculus (Mouse), UniProt O35678); test: In vitro competitive activity-based protein profiling, MAGL (mouse); assay type: biochemical; conditions: for inhibition at 1 µM: read-out: MAGL % inh. 1 μM (mouse)
In short: (§1)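 Gel-based read-out: fluorescence intensity of MAGL and FAAH bands after SDS-PAGE gave serine hydrolase activity. Proteomes at 1.0 mg/mL were pretreated 30 min at 37° C with inhibitor over a concentration range, then labelled 30 min with FP-Rh or HT-01 (stock 50 μM in DMSO).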

FAAH = FAAH (Mus musculus (Mouse), UniProt O08914); test: In vitro competitive activity-based protein profiling, FAAH (mouse); assay type: biochemical; conditions: for inhibition at 1 µM: read-out: FAAH % inh. 1 μM (mouse)
Chain of FAAH (O08914 whole entry): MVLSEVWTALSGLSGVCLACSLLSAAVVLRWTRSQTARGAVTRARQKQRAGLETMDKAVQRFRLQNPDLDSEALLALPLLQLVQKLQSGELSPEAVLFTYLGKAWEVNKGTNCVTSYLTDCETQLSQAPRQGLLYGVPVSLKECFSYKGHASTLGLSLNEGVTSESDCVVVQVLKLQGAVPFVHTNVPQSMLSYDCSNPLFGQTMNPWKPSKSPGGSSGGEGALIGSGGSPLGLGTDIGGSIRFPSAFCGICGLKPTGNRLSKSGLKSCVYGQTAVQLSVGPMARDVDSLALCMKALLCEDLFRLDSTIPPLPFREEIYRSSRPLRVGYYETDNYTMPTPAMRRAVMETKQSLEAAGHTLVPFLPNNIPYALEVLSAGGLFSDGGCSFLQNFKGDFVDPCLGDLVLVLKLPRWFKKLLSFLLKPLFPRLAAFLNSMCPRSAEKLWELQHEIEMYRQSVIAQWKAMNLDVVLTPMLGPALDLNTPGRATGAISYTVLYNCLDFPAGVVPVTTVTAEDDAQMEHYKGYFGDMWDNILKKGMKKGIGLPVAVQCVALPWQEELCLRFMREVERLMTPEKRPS
In short: as §1

Chain of MAGL (O35678 whole entry): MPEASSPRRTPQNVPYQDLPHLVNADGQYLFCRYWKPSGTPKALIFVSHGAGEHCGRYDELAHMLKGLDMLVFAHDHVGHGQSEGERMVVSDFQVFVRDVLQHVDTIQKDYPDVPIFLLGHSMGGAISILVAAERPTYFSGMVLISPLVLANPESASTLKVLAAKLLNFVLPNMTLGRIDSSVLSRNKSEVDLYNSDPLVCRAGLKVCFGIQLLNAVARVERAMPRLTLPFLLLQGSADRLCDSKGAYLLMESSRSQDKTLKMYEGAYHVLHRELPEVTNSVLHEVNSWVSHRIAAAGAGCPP

Compound	inhibition at 1 µM (MAGL) [%]	inhibition at 1 µM (FAAH) [%]	IC50 (MAGL) [nM]	IC50 (FAAH) [nM]
CC(=O)N(C)c1cnn(C(=O)N2CC3CN(Cc4ccccc4N4CCOCC4)CC3C2)c1 (centres unmarked) [Example 185, N-methyl-N-(1-(5-(2-morpholinobenzyl)octahydropyrrolo[3,4-c]pyrrole-2-carbonyl)-1H-pyrazol-4-yl)acetamide]	50 to 75	0 to 25	–	–
CS(=O)(=O)Nc1cnn(C(=O)N2CCN(Cc3ccc(-c4ccccc4)cc3OCc3ccccc3)CC2)c1 [Example 224, N-(1-(4-((3-(benzyloxy)-[1,1′-biphenyl]-4-yl)methyl)piperazine-1-carbonyl)-1H-pyrazol-4-yl)methanesulfonamide]	≥ 75	50 to 75	–	–
CC(=O)N(C)c1cnn(C(=O)N2CCC3(CCN(Cc4ccc(C(F)(F)F)c(N5CCOCC5)c4)C3)C2)c1 (centres unmarked) [Example 61, N-methyl-N-(1-(7-(3-morpholino-4-(trifluoromethyl)benzyl)-2,7-diazaspiro[4.4]nonane-2-carbonyl)-1H-pyrazol-4-yl)acetamide]	≥ 75	≥ 75	≤ 100	≤ 100
CC(=O)N(C)c1cnn(C(=O)N2CC3(CCN(Cc4ccc(C(F)(F)F)cc4)CC3)C2)c1 [Example 20, N-methyl-N-(1-(7-(4-(trifluoromethyl)benzyl)-2,7-diazaspiro[3.5]nonane-2-carbonyl)-1H-pyrazol-4-yl)acetamide]	25 to 50	50 to 75	–	–
CC(=O)N(C)c1cnn(C(=O)N2CCN(Cc3cccc(C)c3)CC2)c1 [Example 206, N-methyl-N-(1-(4-(3-methylbenzyl)piperazine-1-carbonyl)-1H-pyrazol-4-yl)acetamide]	≥ 75	≥ 75	≤ 100	100 to 1000
COc1cccc(CN2CC3CN(C(=O)n4cc(N(C)C(C)=O)cn4)CC3C2)c1 (centres unmarked) [Example 181, N-(1-(5-(3-methoxybenzyl)octahydropyrrolo[3,4-c]pyrrole-2-carbonyl)-1H-pyrazol-4-yl)-N-methylacetamide]	50 to 75	≥ 75	1000 to 10000	100 to 1000
CS(=O)(=O)Nc1cnn(C(=O)N2CCN(Cc3ccc(-c4ccccc4)cc3Cl)CC2)c1 [Example 221, N-(1-(4-((3-chloro-[1,1′-biphenyl]-4-yl)methyl)piperazine-1-carbonyl)-1H-pyrazol-4-yl)methanesulfonamide]	≥ 75	≥ 75	100 to 1000	≤ 100
CC(=O)N(C)c1cnn(C(=O)N2C[C@H]3C[C@H](N(C)Cc4ccc(N5CCCC5)c(C(F)(F)F)c4)C[C@H]3C2)c1 [Example 159, N-methyl-N-(1-(trans-5-(methyl(4-(pyrrolidin-1-yl)-3-(trifluoromethyl)benzyl)amino)octahydrocyclopenta[c]pyrrole-2-carbonyl)-1H-pyrazol-4-yl)acetamide]	≥ 75	≥ 75	–	–
CC(=O)N(C)c1cnn(C(=O)N2CC3CN(Cc4ccc(Oc5ccnnc5)cc4C(F)(F)F)CC3C2)c1 (centres unmarked) [Example 258, N-methyl-N-(1-(5-(4-(pyridazin-4-yloxy)-2-(trifluoromethyl)benzyl)octahydropyrrolo [3,4-c]pyrrole-2-carbonyl)-1H-pyrazol-4-yl)acetamide]	≥ 75	≥ 75	–	–
CC(=O)N(C)c1cnn(C(=O)N2CCC3(CC2)CN(Cc2ccc(-c4ccccc4)cc2C)C3)c1 [Example 226, N-methyl-N-(1-(2-((3-methyl-[1,1-biphenyl]-4-yl)methyl)-2,7-diazaspiro[3.5]nonane-7-carbonyl)-1H-pyrazol-4-yl)acetamide]	≥ 75	≥ 75	≤ 100	100 to 1000
CC(=O)N(C)c1cnn(C(=O)N2C[C@H]3C[C@H](N(C)Cc4ccc(N5C6CCC5COC6)c(C(F)(F)F)c4)C[C@H]3C2)c1 [Example 156, N-(1-(trans-5-((4-(3-oxa-8-azabicyclo[3.2.1]octan-8-yl)-3-(trifluoromethyl)benzyl)(methyl)amino)octahydrocyclopenta[c]pyrrole-2-carbonyl)-1H-pyrazol-4-yl)-N-methylacetamide]	≥ 75	≥ 75	100 to 1000	≤ 100
CC(=O)N(C)c1cnn(C(=O)N2CCC3(CCN(Cc4cc(Cl)ccc4Cl)C3)C2)c1 (single isomer, unassigned) [Example 176, N-(1-(7-(2,5-dichlorobenzyl)-2,7-diazaspiro[4.4]nonane-2-carbonyl)-1H-pyrazol-4-yl)-N-methylacetamide]	≥ 75	≥ 75	≤ 100	≤ 100
COc1cc(-c2ccccc2)ccc1CN1CCN(C(=O)n2cc(NS(C)(=O)=O)cn2)CC1 [Example 220, N-(1-(4-((3-methoxy-[1,1′-biphenyl]-4-yl)methyl)piperazine-1-carbonyl)-1H-pyrazol-4-yl)methanesulfonamide]	≥ 75	≥ 75	100 to 1000	≤ 100
CS(=O)(=O)Nc1cnn(C(=O)N2CCN(Cc3cc(Cl)ccc3C(F)(F)F)CC2)c1 [Example 293, N-(1-(4-(5-chloro-2-(trifluoromethyl)benzyl)piperazine-1-carbonyl)-1H-pyrazol-4-yl)methanesulfonamide]	50 to 75	≥ 75	≤ 100	1000 to 10000
CC(=O)N(C)c1cnn(C(=O)N2CCC3(CCN(Cc4ccc(-c5ncccn5)cc4Cl)C3)C2)c1 (centres unmarked) [Example 268, N-(1-(7-(2-chloro-4-(pyrimidin-2-yl)benzyl)-2,7-diazaspiro[4.4]nonane-2-carbonyl)-1H-pyrazol-4-yl)-N-methylacetamide]	≥ 75	≥ 75	–	–
CC(=O)N(C)c1cnn(C(=O)N2CC3CN(Cc4cccc(Oc5ccccc5Cl)c4)CC3C2)c1 (centres unmarked) [Example 240, N-(1-(5-(3-(2-chlorophenoxy)benzyl)octahydropyrrolo [3,4-c]pyrrole-2-carbonyl)-1H-pyrazol-4-yl)-N-methylacetamide]	≥ 75	≥ 75	≤ 100	≤ 100
CC(=O)N(C)c1cnn(C(=O)N2CC3CN(Cc4cc(N5CCCC5)cc(C(F)(F)F)c4)CC3C2)c1 (centres unmarked) [Example 112, N-methyl-N-(1-(5-(3-(pyrrolidin-1-yl)-5-(trifluoromethyl)benzyl)octahydropyrrolo[3,4-c]pyrrole-2-carbonyl)-1H-pyrazol-4-yl)acetamide]	≥ 75	≥ 75	≤ 100	≤ 100
CC(=O)N(C)c1cnn(C(=O)N2CC3CN(Cc4ccc(C(F)(F)F)c(N5CCCC5)c4)CC3C2)c1 (centres unmarked) [Example 130, N-methyl-N-(1-(5-(3-(pyrrolidin-1-yl)-4-(trifluoromethyl)benzyl)octahydropyrrolo[3,4-c]pyrrole-2-carbonyl)-1H-pyrazol-4-yl)acetamide]	≥ 75	≥ 75	≤ 100	≤ 100
CC(=O)N(C)c1cnn(C(=O)N2CCC3(CCN(Cc4cc(Cl)ccc4C(F)(F)F)C3)C2)c1 (centres unmarked) [Example 70, N-(1-(7-(5-chloro-2-(trifluoromethyl)benzyl)-2,7-diazaspiro[4.4]nonane-2-carbonyl)-1H-pyrazol-4-yl)-N-methylacetamide]	≥ 75	≥ 75	≤ 100	≤ 100
CC(=O)N(C)c1cnn(C(=O)N2CCC3(CCN(Cc4cc(C(F)(F)F)ccc4N4CCCC4)C3)C2)c1 (centres unmarked) [Example 74, N-methyl-N-(1-(7-(2-(pyrrolidin-1-yl)-5-(trifluoromethyl)benzyl)-2,7-diazaspiro[4.4]nonane-2-carbonyl)-1H-pyrazol-4-yl)acetamide]	≥ 75	50 to 75	–	–
CC(=O)N(C)c1cnn(C(=O)N2CCN(Cc3ccccc3F)CC2)c1 [Example 211, N-(1-(4-(2-fluorobenzyl)piperazine-1-carbonyl)-1H-pyrazol-4-yl)-N-methylacetamide]	≥ 75	≥ 75	–	–
CC(=O)N(C)c1cnn(C(=O)N2CC3CN(Cc4ccccc4C)CC3C2)c1 (centres unmarked) [Example 94, N-methyl-N-(1-(5-(2-methylbenzyl)octahydropyrrolo[3,4-c]pyrrole-2-carbonyl)-1H-pyrazol-4-yl)acetamide]	≥ 75	≥ 75	100 to 1000	≤ 100
CC(=O)N(C)c1cnn(C(=O)N2CC3CN(Cc4ccccc4N4CCCC4)CC3C2)c1 (centres unmarked) [Example 184, N-methyl-N-(1-(5-(2-(pyrrolidin-1-yl)benzyl)octahydropyrrolo[3,4-c]pyrrole-2-carbonyl)-1H-pyrazol-4-yl)acetamide]	≥ 75	50 to 75	–	–
CC(=O)N(C)c1cnn(C(=O)N2CCC3(CC2)CN(Cc2cccc(C)c2)C3)c1 [Example 36, N-methyl-N-(1-(2-(3-methylbenzyl)-2,7-diazaspiro[3.5]nonane-7-carbonyl)-1H-pyrazol-4-yl)acetamide]	≥ 75	≥ 75	–	–
CC(=O)N(C)c1cnn(C(=O)N2CCC3(CC2)CN(Cc2cccc(N4CCOCC4)c2)C3)c1 [Example 39, N-methyl-N-(1-(2-(3-morpholinobenzyl)-2,7-diazaspiro[3.5]nonane-7-carbonyl)-1H-pyrazol-4-yl)acetamide]	≥ 75	25 to 50	–	–
CC(=O)N(C)c1cnn(C(=O)N2CCC3(CCN(Cc4cc(Cl)cc(N5CCOCC5)c4)C3)C2)c1 (centres unmarked) [Example 63, N-(1-(7-(3-chloro-5-morpholinobenzyl)-2,7-diazaspiro[4.4]nonane-2-carbonyl)-1H-pyrazol-4-yl)-N-methylacetamide]	≥ 75	≥ 75	–	–
